Measurements from patent US9376700B2, “Methods of modifying N-termini of a peptide or protein using transferases” (The Trustees of the University of Pennsylvania, priority 2012, dated 2016).

What was measured:
Assay type in all cases: biochemical
[1] = target: T1, E. coli aminoacyl tRNA transferase (AaT) (Escherichia coli, UniProt P0A8P1); assay: AaT-catalyzed α-casein N-terminal modification (Edman degradation, tryptic digest MALDI MS); conditions: double addition of donor
T1 construct: made in house; host or cells: E. coli BL21-Gold (DE3), plasmid pEG6, Ni-NTA purified
Procedure: HEPES pH 8.0, 1.50 mM KO, 10 mM MgCl2) and AaT (0.05 mg). The reaction mixture was incubated at 37° C. for 12 h, AaT was removed using Ni^2+ resin (Ni-NTA Superflow, Qiagen), and then buffer exchanged four times into phosphate buffered saline (PBS, 12 mM NaH2PO4, 50 mM NaCl, 4.7 mM KCl, pH 8.0) by Spectra/Por 1 dialysis tubing (Spectrum Laboratories; Rancho Dominguez, Calif.). Azf-modified α-casein was used directly after buffer exchange into PBS. Aliquots (1 nmol) of α-casein were diluted into PBS (22 μL) containing either fluorescein-alkyne (FlAlk, 91 μM) or propargylamine (Alk, 227 μM) for copper-catalyzed azide-alkyne cycloaddition (CuAAC). […] Reactions were boiled with gel loading dye LDS (Pierce; Rockford, Ill.) for 10 min at 95° C. and analyzed by SDS-PAGE. Fluorescence images were obtained with a Geldoc (BioRAD; Hercules, Calif.) using an excitation wavelength of 302 nm for detection of fluorescein. α-Casein was also directly visualized by Coomassie Brilliant Blue staining.
α-Casein-Azf (33 or α-casein (33 μg) was digested with sequencing grade modified Trypsin (0.6 μg) in 27 μL of 25 mM ammonium bicarbonate pH 7.5 (freshly prepared). Digestions were carried out at 37° C. for 14 h. Trypsin digest aliquots (1 μL) were combined with α-cyano-4-hydroxycinnamic acid (1 μL of a saturated solution in 1:1 H2O/CH3CN with 1% TFA) and analyzed by MALDI MS. […]

[2] = target: T1, E. coli aminoacyl tRNA transferase (AaT); assay: α-Casein labeling in cleared E. coli cell lysate with unpurified AaT, then click reaction with FlAlk; conditions: fluorescence after labeling with FlAlk
Procedure: AaT was expressed in E. coli BL21-Gold (DE3) cells as previously described. A cleared cell lysate was obtained by centrifugation following cell lysis using sonication. Protein were modified in a final reaction volume of 110 μL with Azf-A (4c, 3 mM) using AaT (25 from cleared lysate in AaT buffer (50 mM HEPES pH 8.0, 150 mM KCl, 10 mM MgCl2). α-Casein (0.012 mg or 0.12 mg) was added to the reaction and incubated at 37° C. for 2 h, after 1 h an additional 0.3 μmole of 4c was added. For control reactions, equivalent volumes were replaced with water. Excess 4c was removed by buffer exchange four times against phosphate buffered saline (PBS, 12 mM NaH2PO4, 50 mM NaCl, 4.7 mM. KCl, pH 8.0) by Spectra/Por 1 dialysis tubing. Aliquots (18 μL) of 4c modified lysates were diluted to a final volume of 22 pit using PBS containing FlAlk (182 μM) for copper-catalyzed “click” reactions. The “click” reaction was initiated by addition of CuSO4 (100 μM), THPTA (500 μM), and sodium ascorbate (5 mM). The reaction mixtures were analyzed by PAGE gel using Coomassie staining and fluorescence as above.
After AaT-catalyzed modification of α-casein with Azf, residual 4c was removed by dialysis. […] Azf transfer was successful, as shown by the observation of fluorescence after labeling with FlAlk.

[3] = target: E. coli aminoacyl transferase (AaT) (Escherichia coli, UniProt P0A8P1); assay: LysAlaAcm ligation assay: AaT-catalyzed transfer from aminoacyl adenosine donor to LysAlaAcm, HPLC at 325 nm; set-up: made in house; host or cells: E. coli BL21-Gold (DE3), plasmid pEG6, Ni-NTA purified; conditions: single addition of 1 mM donor, 100 μM LysAlaAcm, 2.26 μM AaT, 37° C., 4 h, no additive
Procedure: Each ligation reaction, 125 μL total volume, contained the following reagents: aminoacyl adenosine donor (1 mM), recombinant His10-tagged E. coli aminoacyl transferase (2.26 μM), and LysAlaAcm (100 μM) in the AaT Ligation Buffer (50 mM HEPES pH 8.0, 150 mm KCl, 10 mM MgCl2). The reaction mixtures were incubated at 37° C. for four hours and quenched with 1% acetic acid. The proteins were extracted from the reactions via acetone precipitation. The reactions were precipitated using 4× reaction volume of acetone and cooled at −20° C. for 1 h. Next, the reactions were centrifuged at 13,200 rpm at 4° C. for 20 min to separate the reaction from precipitated protein. The supernatant was transferred to fresh 1.5 mL centrifuge tubes and allowed for acetone evaporation overnight at room temperature. After acetone evaporation, the supernatant was dried in a Speedvac (Savant, Thermo Scientific, Fisher Inc.) for 30 min to remove residual acetone. The resulting reaction volume was dissolved up to 1.2 mL using Milli-Q water and analyzed by HPLC (gradient below) to determine ligation yield by integration of separated peak intensities monitored at 325 nm. Collected HPLC fractions were characterized through MALDI MS analysis. […] Reactions using Phe-pdCpA as donor were carried out in an identical fashion (Ellman, et al., 1991, Methods Enzymol. 202:301-336).
All HPLC analyses of LysAlaAcm ligations were monitored on an Agilent HPLC using a Waters C18 column (Milford, Mass.).
All HPLC analyses of LysAlaAcm ligations were monitored as described elsewhere herein (Gradient 1).
The extent of transfer was evaluated by HPLC analysis of reactions with adenosyl donor, AaT or BpT, and an aminocoumarin-labeled reporter peptide (for AaT, LysAlaAcm was used as previously described by Tirrell and co-workers; for BpT, AspAlaAcm was used in an analogous fashion) (Connor et al., 2008, ChemBioChem 9:366-369). Monitoring LysAlaAcm or AspAlaAcm acylation in crude reaction mixtures using absorbance at 325 nm conveniently eliminates background due to other proteins and nucleic acids, although some non-natural amino acids such as naphthylalanine (Nap) and methoxycoumarinylalanine (Mcm) also absorb in this range.
To evaluate substrate scope, reactions were analyzed after 4 h, when transfer should be complete for the fully enzymatic reaction with Phe tRNA synthetase (Connor et al., 2008, ChemBioChem 9:366-369).

T1 sequence (P0A8P1 whole entry): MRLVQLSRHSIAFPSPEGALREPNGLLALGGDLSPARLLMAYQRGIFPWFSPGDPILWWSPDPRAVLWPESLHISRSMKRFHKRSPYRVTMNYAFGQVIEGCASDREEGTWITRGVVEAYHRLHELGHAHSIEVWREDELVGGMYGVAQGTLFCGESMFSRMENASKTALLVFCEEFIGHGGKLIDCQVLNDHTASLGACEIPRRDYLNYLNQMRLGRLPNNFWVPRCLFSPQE
Sequence of E. coli aminoacyl transferase (AaT) (P0A8P1 whole entry): as above

`[N-]=[N+]=Nc1ccc(C[C@H](N)C(=O)O[C@@H]2[C@H](O)[C@@H](CO)O[C@H]2n2cnc3c(N)ncnc32)cc1` [4c, (S)-(2R,3R,4R,5R)-2-(6-amino-9H-purin-9-yl)-4-hydroxy-5-(hydroxymethyl)tetrahydrofuran-3-yl 2-amino-3-(4-azidophenyl)propanoate] was tested, and the “Conversion of α-casein, trypsin digest and MALDI MS” value [1] was “Complete conversion”, the “Azf transfer to α-casein in crude E. coli lysate with unpurified AaT” value [2] was “successful” and the “Ligated Product Yield (%)” value [3] was 78.5 ± 5.2%.
